Values of other authors, collected in EP1017675B1, “HIGHLY LIPOPHILIC CAMPTOTHECIN DERIVATIVES” (BIONUMERIK PHARMACEUTICALS, INC., priority 1997, dated 1998).

Conditions: parenterally administered; fraction of the lactone form's potency

CC[C@@](O)(C(=O)O)c1cc2n(c(=O)c1CO)Cc1cc3ccccc3nc1-2 [carboxylate species]
antitumor potency relative to the lactone form: one-tenth
